Laboratory results reported in BindingDB's records for patent US12351556 (Inserm (Institut National De La Sante Et De La Recherche …, 2025).

biological target: Mitogen-activated protein kinase 14 (Homo sapiens, UniProt Q16539); assay: In Vitro Affinity Assay
Excerpt: Not found

Mitogen-activated protein kinase 14, sequence (Q16539 whole entry): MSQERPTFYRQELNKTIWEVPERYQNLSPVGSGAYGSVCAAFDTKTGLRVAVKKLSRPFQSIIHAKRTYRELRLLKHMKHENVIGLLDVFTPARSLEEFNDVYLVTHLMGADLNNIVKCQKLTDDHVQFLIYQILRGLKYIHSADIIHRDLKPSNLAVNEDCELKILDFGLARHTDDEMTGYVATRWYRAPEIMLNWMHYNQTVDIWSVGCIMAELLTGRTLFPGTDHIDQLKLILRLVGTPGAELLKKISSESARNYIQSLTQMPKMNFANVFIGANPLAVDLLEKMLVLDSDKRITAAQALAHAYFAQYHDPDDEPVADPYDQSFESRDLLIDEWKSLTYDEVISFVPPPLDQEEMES

| Compound | IC50 |
| --- | --- |
| O=C1NC=C(Nc2ccccc2)CC1c1cccc2[nH]ccc12 (stereo not drawn) [US12351556, Compound 67] | 3030 nM |
| O=C1NC=C(Nc2ccccc2)CC1c1ccccc1Br (stereo not drawn) [US12351556, Compound 69] | 1460 nM |
| O=C1NCC(Nc2ccccc2F)C=C1c1cccc2[nH]ccc12 (stereo not drawn) [US12351556, Compound 118] | 230 nM |
| O=C1NCC(Nc2ccc(F)cc2)C=C1c1cccc2[nH]ccc12 (stereo not drawn) [US12351556, Compound 119] | 1420 nM |
| O=C1NCC(Nc2ccc(F)cc2)C=C1c1cccc2[nH]ccc12 (stereo not drawn) [US12351556, Compound 120] | 430 nM |
| COc1ccccc1NC1=CNC(=O)C(c2cccc3[nH]ccc23)C1 (stereo not drawn) [US12351556, Compound 121] | 5250 nM |
| COc1cccc(NC2=CNC(=O)C(c3cccc4[nH]ccc34)C2)c1 (stereo not drawn) [US12351556, Compound 122] | 5530 nM |
| COc1ccc(NC2=CNC(=O)C(c3cccc4[nH]ccc34)C2)cc1 (stereo not drawn) [US12351556, Compound 123] | 3670 nM |
| Cc1ccccc1NC1=CNC(=O)C(c2cccc3[nH]ccc23)C1 (stereo not drawn) [US12351556, Compound 130] | 1060 nM |
| O=C1NCC(NC2=CC(O)CC=C2)C=C1c1cccc2[nH]ccc12 (stereo not drawn) [US12351556, Compound 134] | 1040 nM |
| O=C1NCC(Nc2ccccc2Br)C=C1c1cccc2[nH]ccc12 (stereo not drawn) [US12351556, Compound 141] | 2720 nM |
| O=C1NCC(NC2=CC(Br)CC=C2)C=C1c1cccc2[nH]ccc12 (stereo not drawn) [US12351556, Compound 142] | 660 nM |
| O=C1NCC(Nc2ccc(Br)cc2)C=C1c1cccc2[nH]ccc12 (stereo not drawn) [US12351556, Compound 143] | 2350 nM |
